Test results as given in PubChem BioAssay (NCI).
Several values for one entry are separate records, joined by “and”; a condition that tells them apart may be missing. Identical values can stand only once.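 Five concentrations, 48 hours, 96-well plates. GI50 is the concentration that inhibits growth by half. TGI is the concentration that stops growth completely.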

Key:
Experiment in all cases: NCI-60 cell line screen, 48 h
[1] = system: 786-0 renal
[2] = system: HCC-2998 colon
[3] = system: HL-60(TB) leukemia
[4] = system: KM12 colon
[5] = system: OVCAR-5 ovarian
[6] = system: RXF 393 renal
[7] = system: SF-539 CNS
[8] = system: TK-10 renal
[9] = system: BT-549 breast
[10] = system: HCT-116 colon

`CC(C)CCC1CC2C(=O)N(c3ccccc3)C(=O)C2c2[nH]c3ccccc3c21` (stereo not given) gave a TGI [1] of 15.9 µM, a TGI [2] of 11.2 µM and a TGI [3] of 5.73 µM. It also gave a TGI [4] of 14.8 µM, a TGI [5] of 31.4 µM and a TGI [6] of 8.01 µM. The TGI [7] was 10.8 µM and the TGI [8] was 16.1 µM.
In the case of `CC1=C(C(=O)Nc2ccc(F)c(Cl)c2)C(c2ccccc2O)NC(=S)N1` (stereo not given), the GI50 [1] is reported as over 50 µM, the TGI [1] is reported as over 50 µM and the GI50 [9] is reported as 19.2 µM. The TGI [9] was 49.4 µM, the GI50 [10] was over 50 µM and the TGI [10] was over 50 µM. The GI50 [3] was over 50 µM, the TGI [3] was over 50 µM and the GI50 [4] was over 50 µM. The TGI [4] was over 50 µM, the GI50 [5] was over 50 µM and the TGI [5] was over 50 µM. The GI50 [6] was 2.15 µM, the TGI [6] was over 50 µM and the GI50 [8] was over 50 µM. For the same compound, the TGI [8] was over 50 µM.
Compound `O=[N+]([O-])c1cccc(C2=NN(c3ccccc3)C[N+](c3ccc(Br)cc3)=N2)c1` has a TGI [1] of over 100 µM, a TGI [2] of over 100 µM and a TGI [10] of over 100 µM. The TGI [4] was over 100 µM, the TGI [5] was over 100 µM and the TGI [6] was over 100 µM. For the same compound, the TGI [7] was over 100 µM and the TGI [8] was over 100 µM.
`O=C(/C=C/c1ccccc1)CCC1C(=O)c2ccccc2C1=O` showed a TGI [1] of over 100 µM, a TGI [9] of over 100 µM and a TGI [2] of over 100 µM. For the same compound, the TGI [10] was over 100 µM, the TGI [3] was over 100 µM and the TGI [4] was over 100 µM. The TGI [5] was over 100 µM, the TGI [6] was over 100 µM and the TGI [7] was over 100 µM.
In the case of `O=C(Nc1ccn(CCO)c(=O)n1)c1ccccc1`, the TGI [1] is reported as over 100 µM, the TGI [10] is reported as over 100 µM and the TGI [3] is reported as over 100 µM. The TGI [4] was over 100 µM, the TGI [5] was over 100 µM and the TGI [6] was over 100 µM. The TGI [7] was over 100 µM and the TGI [8] was over 100 µM.
Work on `C(=NCCN1CCOCC1)=NC1CCCCC1` yielded a TGI [1] of over 100 µM, a TGI [9] of over 100 µM and a TGI [10] of over 100 µM. The TGI [4] was over 100 µM, the TGI [5] was over 100 µM and the TGI [6] was over 100 µM. For the same compound, the TGI [7] was over 100 µM and the TGI [8] was over 100 µM.
Work on `CCCCCCCCCCCCCC(=O)OCC(C[As](=O)(O)O)OC(=O)CCCCCCCCCCCCC` (stereo not given) yielded a TGI [1] of over 100 µM, a TGI [2] of over 100 µM and a TGI [10] of over 100 µM. For the same compound, the TGI [4] was over 100 µM, the TGI [6] was over 100 µM and the TGI [7] was over 100 µM. It also gave a TGI [8] of over 100 µM.
With `O=C(Nc1ccc2ncccc2c1)Nc1ccc2ncccc2c1` the TGI [1] was over 100 µM, the TGI [9] was over 100 µM and the TGI [2] was over 100 µM. For the same compound, the TGI [10] was over 100 µM, the TGI [4] was over 100 µM and the TGI [5] was over 100 µM. For the same compound, the TGI [6] was over 100 µM, the TGI [7] was over 100 µM and the TGI [8] was over 100 µM.
`Cc1c2n(c(=O)[nH]c1=O)C1OC(CO)C(O2)C1O` (stereo not given) showed a TGI [1] of over 100 µM, a TGI [10] of over 100 µM and a TGI [3] of over 100 µM. It also gave a TGI [4] of over 100 µM, a TGI [6] of over 100 µM and a TGI [7] of over 100 µM. For the same compound, the TGI [8] was over 100 µM.
`N#CN/C(N)=N/CO` gave a TGI [1] of over 62.1 µM, a TGI [2] of over 100 µM and a TGI [10] of over 64.4 µM. The TGI [3] was over 100 µM, the TGI [4] was over 55.2 µM and the TGI [5] was over 100 µM. The TGI [6] was 43.5 µM, the TGI [7] was over 100 µM and the TGI [8] was over 100 µM.
`O=c1/c(=C/c2ccccc2[N+](=O)[O-])sc2nnc(-c3ccco3)n12` was tested, and the TGI [1] was over 100 µM, the TGI [2] was 43.4 µM and the TGI [10] was 58.8 µM. The TGI [3] was 58.4 µM, the TGI [4] was 33.4 µM and the TGI [5] was over 100 µM. It also gave a TGI [6] of 32.6 µM, a TGI [7] of 33.9 µM and a TGI [8] of over 100 µM.
With `CCOC(=O)c1cnc2c(ccc3[nH]n(C)nc32)c1=O` the TGI [1] was over 100 µM, the TGI [2] was over 100 µM and the TGI [10] was 61.4 µM. It also gave a TGI [3] of over 100 µM, a TGI [4] of over 100 µM and a TGI [5] of over 100 µM. For the same compound, the TGI [6] was 95.5 µM and the TGI [8] was over 100 µM.
Work on `CC(=O)OC1COC(Oc2c(C)c3c4c(c2O)[C@@H](C)CC[C@@H]4[C@@H](C)C[C@H]3C=C(C)C)C(O)C1OC(C)=O` (stereo not given in full) yielded a GI50 [1] of 16.4 µM, a TGI [1] of 31.8 µM and a GI50 [9] of 26.9 µM. It also gave a TGI [9] of 69.7 µM, a GI50 [2] of 2.3 µM and a TGI [2] of 8.84 µM. It also gave a GI50 [10] of 10.8 µM, a TGI [10] of 23.4 µM and a GI50 [4] of 17.4 µM. It also gave a TGI [4] of 36.4 µM, a GI50 [5] of 15.5 µM and a TGI [5] of 30.1 µM. For the same compound, the GI50 [6] was 11.4 µM, the TGI [6] was 28.5 µM and the GI50 [7] was 22.4 µM. The TGI [7] was 42.6 µM, the GI50 [8] was 24.1 µM and the TGI [8] was 46.3 µM.
Compound `O=C1CCC2(c3ccc(Cl)cc3)Nc3ncccc3N12` (stereo not given) has a TGI [1] of over 100 µM, a TGI [2] of over 100 µM and a TGI [3] of over 100 µM. It also gave a TGI [4] of over 100 µM, a TGI [5] of over 100 µM and a TGI [6] of over 100 µM. The TGI [7] was over 100 µM and the TGI [8] was over 100 µM.
In the case of `Clc1ccc2c(c1)[nH]c1c2nc2ccccn21`, the TGI [1] is reported as 37.5 µM and 33.1 µM, the TGI [2] is reported as 63.3 µM and 13.8 µM and the TGI [10] is reported as 48.3 µM and 46.6 µM. The TGI [4] was 35.7 µM and 32 µM, the GI50 [5] was 38.8 µM and 16.5 µM and the TGI [5] was > 100 µM and 30.1 µM. The GI50 [6] was 26.6 µM and 11.7 µM, the TGI [6] was 68.3 µM and 24.2 µM and the TGI [7] was 50.3 µM and 30.6 µM. It also gave a TGI [8] of 31.2 µM.
With `CCC(=O)CC(=O)CCC(=O)Nc1cc(C)ccc1C` the TGI [1] was over 100 µM, the TGI [10] was over 100 µM and the TGI [3] was over 100 µM. It also gave a TGI [4] of over 100 µM, a TGI [6] of over 100 µM and a TGI [7] of over 100 µM. The TGI [8] was over 100 µM.
In the case of `CC1(C)CC(=O)C(C=NC(=S)c2ccccc2)=C(O)C1`, the TGI [1] is reported as over 100 µM, the TGI [9] is reported as over 100 µM and the TGI [2] is reported as over 100 µM. The TGI [10] was over 100 µM, the TGI [3] was over 100 µM and the TGI [4] was over 100 µM. The TGI [5] was over 100 µM, the TGI [7] was over 100 µM and the TGI [8] was over 100 µM.
`Cc1cc(Nc2ccc(NC(=O)c3ccc(Nc4ccnc5ccccc45)cc3)cc2)nc(N)n1` gave a GI50 [1] of 3.06 µM, a TGI [1] of over 100 µM and a GI50 [9] of 2.25 µM. The TGI [9] was 5.74 µM, the GI50 [3] was 7.31 µM and the TGI [3] was over 100 µM. The GI50 [5] was 3.4 µM, the TGI [5] was 37.5 µM and the GI50 [6] was 2.76 µM. For the same compound, the TGI [6] was 9.82 µM, the GI50 [8] was 19.8 µM and the TGI [8] was over 100 µM.
Compound `O=CCC1CCCCC1` has a TGI [1] of over 100 µM, a TGI [9] of over 100 µM and a TGI [10] of over 100 µM. For the same compound, the TGI [4] was over 100 µM, the TGI [5] was over 100 µM and the TGI [6] was over 100 µM. For the same compound, the TGI [7] was over 100 µM.
With `CN1CC(=O)N2Cc3ccccc3-n3cccc3C2C1` (stereo not given) the TGI [1] was over 100 µM, the TGI [2] was over 100 µM and the TGI [10] was over 100 µM. The TGI [4] was over 100 µM, the TGI [5] was over 100 µM and the TGI [6] was over 100 µM. It also gave a TGI [7] of over 100 µM and a TGI [8] of over 100 µM.
With `CCCCOC(=O)CNC(=O)OC/C=C/C#CC#C/C=C/COC(=O)NCC(=O)OCCCC` the GI50 [1] was over 10 µM, the TGI [1] was over 100 µM and the GI50 [2] was over 100 µM. It also gave a TGI [2] of over 100 µM, a GI50 [10] of over 100 µM and a TGI [10] of over 100 µM. It also gave a GI50 [3] of over 100 µM, a TGI [3] of over 100 µM and a GI50 [4] of over 100 µM. It also gave a TGI [4] of over 100 µM, a GI50 [5] of over 100 µM and a TGI [5] of over 100 µM. It also gave a GI50 [6] of over 100 µM, a TGI [6] of over 100 µM and a GI50 [7] of over 100 µM. It also gave a TGI [7] of over 100 µM, a GI50 [8] of over 100 µM and a TGI [8] of over 100 µM.
`CC(=O)CCn1ncc(Cl)c(Cl)c1=O` was tested, and the TGI [1] was 54.9 µM, the TGI [2] was 21.9 µM and the TGI [10] was 27.9 µM. It also gave a TGI [3] of 63.2 µM, a TGI [4] of 41.5 µM and a TGI [5] of 33.2 µM. It also gave a TGI [6] of 32.9 µM, a TGI [7] of 38.5 µM and a TGI [8] of over 100 µM.
Compound `Nc1nc(Cl)cc(NCCCCCCCCNc2cc(Cl)nc(N)n2)n1` has a TGI [1] of over 100 µM, a TGI [2] of over 100 µM and a TGI [10] of over 100 µM. It also gave a TGI [3] of 48.5 µM, a TGI [4] of 56.9 µM and a TGI [6] of 72 µM. For the same compound, the TGI [7] was over 100 µM and the TGI [8] was over 100 µM.
